Experimental data from US7265152B2 (ViroPharma Incorporated, priority 2002, dated 2007).
Read-outs that look alike come from different tables or passages of the source.

Assays:
HCV NS5B = target: T1, HCV NS5B (Hepatitis C virus genotype 1b, UniProt Q9WMX2); assay: Inhibition of viral RNA-dependent RNA polymerase (RdRp), in vitro biochemical assay; set-up: species or system HCV genotype 1b virus (BB7); settings: HCV NS5B RdRp, BB7 genotype 1b; read-out: HCV pol-BB7 IC50
T1 construct: fusion protein, of which the carboxyl terminal 21 amino acids were removed to enhance its solubility; His tag (GSHHHHHH); made in house; host or cells: E. coli
In short: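 IC50 values are the concentrations that halve in vitro RNA synthesis by HCV NS5B polymerase. The enzyme was a C-terminally truncated (Δ21), His-tagged genotype 1b (BB7 consensus) protein purified from E. coli.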

[1] = test system: HCV replicon (BB7 sequence) in Huh-7-Clone A cells; assay: HCV replicon assay: ELISA of NS5A protein in replicon-containing cells (Inhibition of Viral RNA Replication); type: cell-based
In short: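 EC50 taken from an 8-point serially diluted dose curve, with NS5A level as read-out: fixed cells probed with primary monoclonal and HRP-conjugated secondary, TMB developed 30 min, OD 650 nm. Compound exposure 72 h in Huh-7-Clone A replicon cells (BB7 sequence).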

[2] = Hepatitis C virus, ranges of EC50 in HCV replicon assay, read-out: Replicon

SMILES | IC50 (HCV NS5B) [µM] | EC50 [1, 2] [µM] | EC50 ([1]; ranges of EC50 in HCV replicon assay, read-out: Replicon) [µM] | EC50 ([1]; Hepatitis C virus, read-out: Replicon (μM)) [µM]
CNC(=O)c1c(-c2ccc(F)cc2)oc2cc(S(=O)(=O)N3CCOCC3)c(OC(C)C)cc12 [Example 142, 2-(4-Fluoro-phenyl)-5-isopropoxy-6-(morpholine-4-sulfonyl)-benzofuran-3-carboxylic acid methylamide] | ≤ 0.5 | < 10 | – | –
CNC(=O)c1c(-c2ccc(F)cc2)oc2cc(S(=O)(=O)NC)c(OC(C)C)cc12 [Example 143, 2-(4-Fluoro-phenyl)-5-isopropoxy-6-methylsulfamoyl-benzofuran-3-carboxylic acid methylamide] | ≤ 0.5 | > 30 | – | –
CNC(=O)c1c(-c2ccc(F)cc2)oc2cc(S(=O)(=O)N(C)C)c(OC(C)C)cc12 [Example 144, 6-Dimethylsulfamoyl-2-(4-fluoro-phenyl)-5-isopropoxy-benzofuran-3-carboxylic acid methylamide] | ≤ 0.5 | < 30 | – | –
CNC(=O)c1c(-c2ccc(F)cc2)oc2cc(NS(=O)(=O)C(C)C)c(OC(C)C)cc12 [Example 145, 2-(4-Fluoro-phenyl)-5-isopropoxy-6-(propane-2-sulfonylamino)-benzofuran-3-carboxylic acid methylamide] | 0.5 to 5 | < 10 | – | –
CNC(=O)c1c(-c2ccc(F)cc2)oc2cc(C(N)=O)c(OC(C)C)cc12 [Example 146, 2-(4-Fluoro-phenyl)-5-isopropoxy-benzofuran-3,6-dicarboxylic acid 6-amide 3-methylamide] | 0.5 to 5 | – | > 30 | –
CNC(=O)c1c(-c2ccc(F)cc2)oc2cc(-c3cncnc3)c(OC(C)C)cc12 [Example 147, 2-(4-Fluoro-phenyl)-5-isopropoxy-6-pyrimidin-5-y1-benzofuran-3-carboxylic acid mehtylamide] | ≤ 0.5 | < 10 | – | –
CNC(=O)c1c(-c2ccc(F)cc2)oc2cc(NC(C)(C)C)c(OC(C)C)cc12 [Example 148, 6-tert-Butylamino-2-(4-fluoro-phenyl)-5-isopropoxy-benzofuran-3-carboxylic acid methylamide] | ≤ 0.5 | < 10 | – | –
CNC(=O)c1c(-c2ccc(F)cc2)oc2cc(S(N)(=O)=O)c(OC(C)C)cc12 [Example 149, 2-(4-Fluoro-phenyl)-5-isopropoxy-6-sulfamoyl-benzofuran-3-carboxylic acid methylamide] | 5 to 30 | > 30 | – | –
CNC(=O)c1c(-c2ccc(F)cc2)oc2cc(S(=O)(=O)NC3CCC3)c(OC(C)C)cc12 [Example 150, 6-Cyclobutylsulfamoyl-2-(4-fluoro-phenyl)-5-isopropoxy-benzofuran-3-carboxylic acid methylamide] | 0.5 to 5 | < 30 | – | –
CNC(=O)c1c(-c2ccc(F)cc2)oc2cc(-c3ccco3)c(OC(C)C)cc12 [Example 151, 2-(4-Fluoro-phenyl)-6-furan-2-yl-5-isopropoxy-benzofuran-3-carboxylic acid methylamide] | ≤ 0.5 | < 30 | – | –
CNC(=O)c1c(-c2ccc(F)cc2)oc2cc(-c3ccoc3)c(OC(C)C)cc12 [Example 152, 2-(4-Fluoro-phenyl)-6-furan-3-yl-5-isopropoxy-benzofuran-3-carboxylic acid methylamide] | ≤ 0.5 | < 10 | – | –
CNC(=O)c1c(-c2ccc(F)cc2)oc2cc(-c3cccnc3)c(OC(C)C)cc12 [Example 153, 2-(4-Fluoro-phenyl)-5-isopropoxy-6-pyridin-3-yl-benzofuran-3-carboxylic acid methylamide] | ≤ 0.5 | < 10 | – | –
CNC(=O)c1c(-c2ccc(F)cc2)oc2cc(S(=O)(=O)N3CCCC3)c(OC(C)C)cc12 [Example 154, 2-(4-Fluoro-phenyl)-5-isopropoxy-6-(pyrrolidine-1-sulfonyl)-benzofuran-3-carboxylic acid methylamide] | ≤ 0.5 | < 10 | – | –
CNC(=O)c1c(-c2ccc(F)cc2)oc2cc(S(=O)(=O)NC3CC3)c(OC(C)C)cc12 [Example 155, 6-Cyclopropylsulfamoyl-2-(4-fluoro-phenyl)-5-isopropoxy-benzofuran-3-carboxylic acid methylamide] | ≤ 0.5 | < 10 | – | –
CCS(=O)(=O)Nc1cc2oc(-c3ccc(F)cc3)c(C(=O)NC)c2cc1OC(C)C [Example 156] | ≤ 0.5 | – | – | < 10
C=Cc1cc2oc(-c3ccc(F)cc3)c(C(=O)NC)c2cc1OC(C)C [Example 157, 2-(4-Fluoro-phenyl)-5-isopropoxy-6-vinyl-benzofuran-3-carboxylic acid methylamide] | ≤ 0.5 | < 10 | – | –
CNC(=O)c1c(-c2ccc(F)cc2)oc2cc(OC)c(OC(C)C)cc12 [Example 158, 2-(4-Fluoro-phenyl)-5-isopropoxy-6-methoxy-benzofuran-3-carboxylic acid methylamide] | ≤ 0.5 | < 10 | – | –
CNC(=O)c1c(-c2ccc(F)cc2)oc2cc(-c3c(C)noc3C)c(OC(C)C)cc12 [Example 159, 6-(3,5-Dimethyl-isoxazol-4-yl)-2-(4-fluoro-phenyl)-5-isopropoxy-benzofuran-3-carboxylic acid methylamide] | ≤ 0.5 | < 1 | – | –
CNC(=O)c1c(-c2ccc(F)cc2)oc2cc(C=O)c(OC(C)C)cc12 [Example 160, 2-(4-Fluoro-phenyl)-6-formyl-5-isopropoxy-benzofuran-3-carboxylic acid methylamide] | ≤ 0.5 | < 30 | – | –
CNC(=O)c1c(-c2ccc(F)cc2)oc2cc(-c3ccc(F)nc3)c(OC(C)C)cc12 [Example 161, 2-(4-Fluoro-phenyl)-6-(6-fluoro-pyridin-3-yl)-5-isopropoxy-benzofuran-3-carboxylic acid methylamide] | ≤ 0.5 | < 10 | – | –
CNC(=O)c1c(-c2ccc(F)cc2)oc2cc(CNS(C)(=O)=O)c(OC(C)C)cc12 [Example 162, 2-(4-Fluoro-phenyl)-5-isopropoxy-6-(methanesulfonylamino-methyl)-benzofuran-3-carboxylic acid methylamide] | 0.5 to 5 | < 10 | – | –
CNC(=O)c1c(-c2ccc(F)cc2)oc2cc(N(C3CCCC3)S(C)(=O)=O)c(OC(C)C)cc12 [Example 163, 6-(Cyclopentyl-methanesulfonyl-amino)-2-(4-fluoro-phenyl)-5-isopropoxy-benzofuran-3-carboxylic acid methylamide] | ≤ 0.5 | < 1 | – | –
CNC(=O)c1c(-c2ccc(F)cc2)oc2cc(N(CCO)S(C)(=O)=O)c(OC(C)C)cc12 [Example 164, 2-(4-Fluoro-phenyl)-6-[(2-hydroxy-ethyl)-methanesulfonyl-amino]-5-isopropoxy-benzofuran-3-carboxylic acid methylamide] | ≤ 0.5 | < 10 | – | –
CNC(=O)c1c(-c2ccc(F)cc2)oc2cc(OC)c(O)cc12 [Example 165, 2-(4-Fluoro-phenyl)-5-hydroxy-6-methoxy-benzofuran-3-carboxylic acid methylamide] | 5 to 30 | > 30 | – | –
CCOc1cc2c(C(=O)NC)c(-c3ccc(F)cc3)oc2cc1N1CCOCC1 [Example 166, 5-Ethoxy-2-(4-fluoro-phenyl)-6-morpholin-4-yl-benzofuran-3-carboxylic acid methylamide] | 0.5 to 5 | < 10 | – | –
